Source: article PMC9775191, “A Subset Screen of the Compounds Australia Scaffold Library Identifies 7-Acylaminodibenzoxazepinones as Potent and Selective Hits for Anti-Giardia Drug Discovery” (Biomedicines, 2022)
Read-outs that look alike come from different tables or passages of the source.

Assays:
[1] = tested on: G. duodenalis BRIS/91/HEPU/1279; assay: Giardia dose response assay, assemblage B; type: cell-based, Giardia duodenalis; details: Giardia duodenalis; for IC50: ±SD, max 10 µM; for inhibition at 10 µM: read-out: % inhibition @ 10µM 48h (comment), Table S2 comment
Method in brief: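 Assemblage B trophozoites (BRIS/91/HEPU/1279, 1.5 × 10^4 parasites/well) faced 8–12-point doubling dilutions in duplicate, incubated 48 h at 37 °C under 3% O2, 5% CO2 in N2. Parasites were imaged and counted at 24 and 48 h. Growth inhibition was taken versus vehicle controls minus background, with IC50 by log-linear interpolation.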

[2] = tested on: G. duodenalis BRIS/91/HEPU/1279; assay: Primary Giardia screen at 10 µM (live-cell imaging, automated counting); type: cell-based, Giardia duodenalis; details: for inhibition at 10 µM: Giardia duodenalis
Method in brief: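 Percent growth versus 0.2% DMSO vehicle, background-corrected with media-only wells, is reported at 24 and 48 h from automated live-cell counts. Testing used 10 μM final in a 3% O2 atmosphere, with plate quality checked by Z' factor.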

[3] = tested on: Escherichia coli (ATCC 25922); assay: Anti-bacterial activity assay; type: cell-based; details: Escherichia coli, ATCC25922, 50 µM; read-out: Bacterial Inhibition E. coli
Protocol: (§1) The activity of compounds against methicillin resistant Staphylococcus aureus (ATCC 43300), Escherichia coli (ATCC 25922), Acinetobacter baumannii (ATCC 19606) and Klebsiella pneumoniae (ATCC 700603) was assessed at 50 µM in duplicate as previously described. In brief, mid-log phase bacteria cultures were added to 384-well microtiter plate wells containing compound to final cell density of 5 × 10^5 CFU/mL in 50 µL. Plates were then covered and incubated at 37 °C for 18 h without shaking. Inhibition of bacterial growth was determined by measuring absorbance at 600 nm (Tecan M1000 Pro monochromator plate reader) and calculating percentage growth inhibition relative to the negative media and bacteria without inhibitors. Vancomycin hydrochloride (Sigma-Aldrich an affiliate of Merck KGaA, Darmstadt, Germany, #861987) and colistin sulfate (Sigma-Aldrich an affiliate of Merck KGaA, Darmstadt, Germany, C4461) were on each plate as positive controls for Gram-positive (S. aureus) and Gram-negative (E. coli, A. baumannii and K. pneumoniae) bacteria, respectively.

[4] = tested on: Acinetobacter baumannii (ATCC 19606); assay: Anti-bacterial activity assay; type: cell-based; details: ATCC19606, 50 µM
Protocol: as §1

[5] = tested on: Klebsiella pneumoniae (ATCC 700603); assay: Anti-bacterial activity assay; type: cell-based; details: ATCC700603, 50 µM, read-out: Bacterial Inhibition K. pneumoniae
Protocol: as §1

[6] = tested on: methicillin resistant Staphylococcus aureus (ATCC 43300); assay: Anti-bacterial activity assay; type: cell-based; details: Staphylococcus aureus, ATCC43300, 50 µM; read-out: Bacterial Inhibition S. aureus
Protocol: as §1

[7] = tested on: Neonatal foreskin fibroblast (NFF) cells; assay: Mammalian cell cytotoxicity assay (sulforhodamine B); type: cell-based, human; details: for inhibition at 20 µM: Homo sapiens, NFF, ±SD; for SI (48h Gd): Table S2, NFF vs 48 h Giardia IC50
Protocol: The selectivity of compounds of interest was assessed against NFF cells. Assays were performed using sulforhodamine B and included media only, negative (no compound, no DMSO), and vehicle (DMSO) controls as previously described. A chloroquine control plate was included in each assay. […] Repurchased SN00797640 was tested in dose–response from 100 µM against NFF. Selectivity indices (SI) were calculated by dividing mammalian cell IC50 values by G. duodenalis BRIS/91/HEPU/1279 IC50 values.

[8] = 24 h, read-out: G. duodenalis IC50 24h, Table S2, 24 h
[9] = 48 h, Table S2, 48 h, read-out: G. duodenalis IC50 48h
[10] = 24 h, first singlicate assay, read-out: % Inhibition n=1 24h
[11] = 24 h, re-assessment, read-out: % Inhibition n=2 24h
[12] = 24 h, read-out: Average % Inhibition 24h
[13] = 48 h, first singlicate assay, read-out: % Inhibition n=1 48h
[14] = 48 h, re-assessment, read-out: % Inhibition n=2 48h
[15] = 48 h, read-out: Average % Inhibition 48h

Compound	IC50 [1, 8]	IC50 [1, 9]	inhibition at 10 µM ([1]; 48 h)	inhibition at 10 µM [2, 10]	inhibition at 10 µM [2, 11]	inhibition at 10 µM [2, 12]	inhibition at 10 µM [2, 13]	inhibition at 10 µM [2, 14]	inhibition at 10 µM [2, 15]	inhibition at 50 µM [3]	inhibition at 50 µM [4]	inhibition at 50 µM [5]	inhibition at 50 µM [6]	inhibition at 20 µM [7]	SI (48h Gd) [7]	Average % Inhibition 48h ([2]; 48 h)
CCc1nnc2c3ccccc3nc(N3CCN(c4cccc(Cl)c4)CC3)n12 [SN00788523, CCc1nnc2n1c(nc1ccccc21)N1CCN(CC1)c1cccc(Cl)c1]	> 10 µM	6.91 µM	44%	38.2%	28.9%	33.6%	65.8%	80.4%	73.1%	2.37%	1.85%	22.1%	1.08%	-0.2 ± 22.2%	> 2	
COc1cc(NS(=O)(=O)c2ccc(C)cc2)cc2sc(NC(=O)c3ccccc3)nc12 [SN00790147, COc1cc(cc2sc(NC(=O)c3ccccc3)nc12)NS(=O)(=O)c1ccc(C)cc1]	> 10 µM	> 10 µM		34.5%	12.8%	23.6%	56.9%	43.2%	50.1%	-1.53%	3.03%	6.94%	11.9%	53.3 ± 7.1%		
Cc1ccc(C)c(-c2cc3c4nn(CC(=O)N(C)c5ccc(F)cc5)c(=O)n4ccn3n2)c1 [SN00790641, Fc1ccc(cc1)N(C)C(=O)Cn1nc2c3cc(nn3ccn2c1=O)c1cc(C)ccc1C]	2.84 µM	3.41 ± 2.02 µM		88.6%	70.6%	79.6%	95%	97.7%	96.3%	0.25%	4.72%	6.73%	-6.6%	40.4 ± 1.1%	> 5	> 90%
O=C(NC1CCCCC1)c1nc(Nc2ccccc2)c2ccccc2n1 [SN00792461, O=C(NC1CCCCC1)c1nc(Nc2ccccc2)c2ccccc2n1]	5.35 µM	7.82 µM		44.7%	74.4%	59.5%	57.7%	88.5%	73.1%	3.63%	10.8%	12.6%	8.09%	21.3 ± 27.1%	> 2	
Cc1ccc(NC(=O)CN2C(=O)C3CCCCN3c3ccc(C(=O)N4CCCC4)cc32)cc1 (stereo not shown) [SN00792764, Cc1ccc(cc1)NC(=O)CN1C(=O)C2CCCCN2c2ccc(cc12)C(=O)N1CCCC1]	> 10 µM	> 10 µM	45.9%	43.9%	27.1%	35.5%	59%	65.8%	62.4%	3.43%	4.12%	5.08%	-1.85%	16.6 ± 20.4%		
CCOc1ccc(CCNC(=O)c2ccc3c(c2)nc2n3CCOC2)cc1OCC [SN00792841, CCOc1cc(CCNC(=O)c2ccc3c(c2)nc2COCCn32)ccc1OCC]	> 10 µM	4.75 ± 4.02 µM		41.7%	12.7%	27.2%	88.5%	71.1%	79.8%	-0.09%	2.57%	7.3%	-0.24%	-24.8 ± 15.3%	> 4	
COc1ccccc1N1CCN(C(=O)c2cc3c(C)nn(-c4ccc(C)cc4)c3s2)CC1 [SN00793100, COc1ccccc1N1CCN(CC1)C(=O)c1cc2c(C)nn(c3ccc(C)cc3)c2s1]	> 10 µM	> 10 µM		51.9%	44%	48%	62.1%	69.2%	65.6%	1.35%	9.06%	7.52%	10.1%	46.7 ± 6.8%		
COc1ccc(Nc2cc(C)nc(N3CCN(C(=O)Nc4cccc(OC)c4)CC3)n2)cc1 [SN00793512, COc1ccc(cc1)Nc1cc(C)nc(n1)N1CCN(CC1)C(=O)Nc1cccc(OC)c1]	8.74 µM	8.63 ± 1.91 µM		50.6%	48.1%	49.3%	88.7%	84.5%	86.6%	3.7%	16.8%	4.81%	6.36%	35.2 ± 2.5%	> 2	
COc1ccc(NC(=O)c2ccc(-c3cc(NC4CCCCC4)ncn3)cc2)cc1 [SN00794765, COc1ccc(cc1)NC(=O)c1ccc(cc1)c1ncnc(NC2CCCCC2)c1]	> 10 µM	> 10 µM		29.5%	4.7%	17.1%	63.5%	38.6%	51%	3.31%	-0.4%	1.61%	2.05%	23.1 ± 8.6%		
O=C(Cc1csc2nc(-c3ccccc3)cn12)Nc1ccc(Cl)cc1 [SN00796218, Clc1ccc(cc1)NC(=O)Cc1csc2nc(cn12)c1ccccc1]	> 10 µM	> 10 µM		47.2%	48%	47.6%	59.9%	75.5%	67.7%	3.03%	4.35%	3.63%	-2.23%	29.7 ± 10.3%		
Cn1nccc1-c1cccc(-c2noc(-c3cccc(F)c3)n2)c1 [SN00798315, Fc1cccc(c1)c1onc(n1)c1cccc(c1)c1ccnn1C]	> 10 µM	4.74 ± 6.4 µM		24.1%	11.1%	17.6%	66.9%	61.2%	64%	2.55%	1.7%	9.56%	1.07%	-9 ± 1.9%	> 4	
Cc1cccc(CNS(=O)(=O)c2cc(-c3csc(C)n3)sc2C)c1 [SN00798431, Cc1cccc(CNS(=O)(=O)c2cc(sc2C)c2csc(C)n2)c1]	> 10 µM	5.93 ± 5.7 µM		30.2%	12.3%	21.2%	59.2%	68.1%	63.6%	-0.77%	42.5%	13.7%	13.3%	19.3 ± 27%	> 3	
